Experimental findings from patent US20260000698A1 (priority 2022, published 2026) are described below.

Read-outs that look alike come from different tables or passages of the source.

One may read the IC50 as the concentration at which inhibition is half-maximal. Usually inhibition stands for the relative decrease from the control value, in per cent. What is called EC50 is the midpoint of the concentration-response curve.

The target of series [1] is SARS-CoV-2 Nsp14 MTase (Severe acute respiratory syndrome coronavirus 2, UniProt P0DTD1). Nature of the series: biochemical. The class given is biochemical.
The nature of series [2]: in vitro. The conditions noted are these: human. Here is the method: (§1) Percentage of infected cells was determined by dividing the number of infected cells by the total number of cells per well. The percentage of infected cells and total number of cells for each treatment was plotted into GraphPad prism (GraphPad Software; San Diego, CA, USA) to perform a non-linear regression analysis, generate infectious dose-response curves and to calculate EC50 and CC50 values.
(§2) Viability assays for the non-infected A549/ACE2/TMPRSS2 cells were performed using the 3-(4,5-dimethylthiazol-2-yl)-5-(3-carboxymethoxyphenyl)-2-(4-sulfophenyl)-2H-tetrazolium (MTS)-based tetrazolium reduction CellTiter 96 Aqueous Non-Radioactive cell proliferation assay (Promega G5430; Madison, WI) as described. Assays were conducted using parallel plates to those used in the immunofluorescence assay. Experimental details (cell line, number of cells seeded and incubation time) corresponded to those used in the immunofluorescence assay above. The data obtained were used to calculate the CC50 value using GraphPad Prism software.

The subject of series [3] is SARS-CoV-2 isolate USA-WA1/2020. The series is described as follows: microbe, parasite or virus in culture. The conditions noted are these: for inhibition at 10 µM: Severe acute respiratory syndrome coronavirus 2, A549-ACE2, read-out: % inhibition at 10 μM (EC50); for EC50: Severe acute respiratory syndrome coronavirus 2, A549-ACE2, 48 h.
Series [4] deals with A549/ACE2/TMPRSS2 cells. The series is described as follows: in vitro. The conditions noted are these: for CC50: NT (nontoxic): cell viability at 50 μM. As for the experimental part: as §1, §2
Series [5] deals with SARS-CoV-2 isolate USA-WA1/2020. As to conditions: for EC50: NA (not active): inhibition at 50 μM.
[6] abbreviates: LC-MS/MS detection of SAH, read-out: MTase IC50.

`Nc1ncnc2c1ncn2[C@@H]1C[C@H](CNS(=O)(=O)c2ccc3ccccc3c2)[C@H](O)[C@@H]1O` [Compound A3, N-(((1R,2S,3R,4R)-4-(6-Amino-9H-purin-9-yl)-2,3-dihydroxycyclopentyl)methyl)naphthalene-2-sulfonamide] came in with an IC50 in series [1] of 103 µM. The molecule also had a CC50 in series [2] greater than 100 µM. The inhibition at 10 µM in series [3] was determined as 41%.
`CCN(C[C@H]1C[C@@H](n2cnc3c(N)ncnc32)[C@H](O)[C@@H]1O)S(=O)(=O)c1ccc2ccccc2c1` [Compound A2, N-(((1R,2R,3S,4R)-4-(6-Amino-9H-purin-9-yl)-2,3-dihydroxycyclopentyl)methyl)-N-ethylnaphthalene-2-sulfonamide]: the IC50 in series [1] (setting [6]) turned out to be 0.26 µM. Further, in series [2], the CC50 was greater than 100 µM. The inhibition at 10 µM in series [3] is 29%.
In turn, `Nc1ncnc2c1ncn2[C@@H]1C[C@H](CNS(=O)(=O)c2ccc3ccccc3c2)[C@@H](O)[C@H]1O` [Compound A1, N-(((1R,2R,3S,4R)-4-(6-Amino-9H-purin-9-yl)-2,3-dihydroxycyclopentyl)methyl)naphthalene-2-sulfonamide] came in with a concentration for half-maximal inhibition (IC50) in series [1] of 0.78 µM. The molecule further returned a CC50 in series [2] greater than 100 µM. In series [3], the inhibition at 10 µM turned out to be 33%.
Consider `Nc1ncnn2c([C@@H]3O[C@H](CNS(=O)(=O)c4cccc5ccccc45)[C@@H](O)[C@H]3O)ccc12` [Compound 12, N-(((2R,3S,4R,5S)-5-(4-Aminopyrrolo[2,1-f][1,2,4]triazin-7-yl)-3,4-dihydroxytetrahydrofuran-2-yl)methyl)naphthalene-1-sulfonamide], for which the IC50 in series [1] (setting [6]) is 7.3 µM. This molecule also showed a CC50 in series [2] greater than 100 µM. Moreover, the midpoint of the response in series [3], the EC50, lay at 3 µM.
Take `Nc1ncnn2c([C@@H]3O[C@H](CNS(=O)(=O)c4csc5ccccc45)[C@@H](O)[C@H]3O)ccc12` [Compound 14, N-(((2R,3S,4R,5S)-5-(4-Aminopyrrolo[2,1-f][1,2,4]triazin-7-yl)-3,4-dihydroxytetrahydrofuran-2-yl)methyl)benzo[b]thiophene-3-sulfonamide]: the IC50 in series [1] (setting [6]) stood at 2 µM. Moreover, the CC50 in series [2] was greater than 100 µM. This molecule also returned an EC50 in series [3] of 13 µM.
On to `Nc1ncnc2c1ncn2[C@@H]1O[C@H](CNS(=O)(=O)c2ccc3nc(Cl)ccc3c2)[C@@H](O)[C@H]1O` [Compound 5, N-(((2R,3S,4R,5R)-5-(6-Amino-9H-purin-9-yl)-3,4-dihydroxytetrahydrofuran-2-yl)methyl)-2-chloroquinoline-6-sulfonamide], for which the IC50 in series [1] (setting [6]) was 0.44 µM. For the same molecule, in series [1] (on replacing 2-naphthalene), the “fold reduction in inhibitory activity” value is recorded as 7 fold. Besides, in series [4], the “CC50: NT (nontoxic)” value is on record as “NT^b (NT, nontoxic, >95% cell viability at 50 μM;)”. In series [5], the “EC50: NA (not active)” value is reported as “NA^a (NA, not active, <15% inhibition at 50 μM.)”.
Take `CC(=O)O[C@@H]1[C@H](OC(C)=O)[C@@H](CNS(=O)(=O)c2ccc3ccccc3c2)O[C@H]1c1ccc2c(N)ncnn12` [Compound 11, (2S,3S,4R,5R)-2-(4-Aminopyrrolo[2,1-f][1,2,4]triazin-7-yl)-5-((naphthalene-2-sulfonamido)methyl)tetrahydrofuran-3,4-diyl diacetate]: in series [4] (A549/ACE2/TMPRSS2 cells), the CC50 worked out at 63 µM. In series [4] (human, 100 μM), the “cytotoxicity” value was “more toxic than 10”. This molecule also showed an EC50 in series [3] of 4.3 µM. In addition, in series [5] (A549 AT cells), the “antiviral activity” value is on record as “less active”.
Take `Nc1ncnc2c1ncn2[C@@H]1O[C@H](CNC(=O)c2ccc3ccccc3c2)[C@@H](O)[C@H]1O` [Compound 2, N-(((2R,3S,4R,5R)-5-(6-Amino-9H-purin-9-yl)-3,4-dihydroxytetrahydrofuran-2-yl)methyl)-2-naphthamide]: in series [1] (setting [6]), the IC50 was 2.7 µM. For the same molecule, in series [4], the “CC50: NT (nontoxic)” value is listed as “NT^b (NT, nontoxic, >95% cell viability at 50 μM;)”. Besides, the “EC50: NA (not active)” value in series [5] is listed as “NA^a (NA, not active, <15% inhibition at 50 μM.)”.
